{"source": "paper PMC10467108", "about": "“Of Seven New K^+ Channel Inhibitor Peptides of Centruroides bonito, α-KTx 2.24 Has a Picomolar Affinity for Kv1.2” (Toxins, 2023)", "key": {"[1]": {"tested_on": "Kv1.2", "set-up": "method as in 7 sources, ref 40 (CoTx1), 33 (II-x toxins), 45, 46 (Maurotoxin) ||| ref 32 (CoTx2), 33 (II-10.9), 34 (Ce3) ||| ref 33 (II-x toxins), 47, 48 (Pi4) ||| ref 33 (II-10.4), 32 (CoTx2) ||| ref 33 = [33]; PMID 26921461; doi:10.1016/j.toxicon.2016.02.017; 33. Olamendi-Portugal T. Bartok A. Zamudio-Zuñiga F. Balajthy A. Becerril B. Panyi G. Possani L.D. Isolation, chemical and functional characterization of several new K+-channel blocking peptides from ||| ...", "settings": "cited from earlier work", "experimental": "Macroscopic Kv1.1 and Kv1.2 currents were measured in transiently transfected CHO cells."}, "[2]": {"biological_target": "Kv1.2 (Homo sapiens) (UniProt P16389)", "sequence (P16389 whole entry)": "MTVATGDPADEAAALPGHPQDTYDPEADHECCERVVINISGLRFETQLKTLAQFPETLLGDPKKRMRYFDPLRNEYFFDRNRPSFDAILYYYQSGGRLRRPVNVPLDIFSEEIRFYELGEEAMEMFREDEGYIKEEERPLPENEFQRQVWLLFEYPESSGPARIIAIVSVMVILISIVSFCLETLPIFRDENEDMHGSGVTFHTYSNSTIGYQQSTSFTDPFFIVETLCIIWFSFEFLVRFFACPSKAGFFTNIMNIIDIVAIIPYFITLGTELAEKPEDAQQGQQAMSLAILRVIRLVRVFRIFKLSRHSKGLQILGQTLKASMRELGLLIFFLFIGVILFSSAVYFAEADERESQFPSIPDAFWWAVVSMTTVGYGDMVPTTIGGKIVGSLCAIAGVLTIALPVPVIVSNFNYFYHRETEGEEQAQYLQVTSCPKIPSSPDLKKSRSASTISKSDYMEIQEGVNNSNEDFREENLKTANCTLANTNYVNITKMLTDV", "settings": "cited from earlier work"}, "[3]": {"biological_target": "T1, Kv1.3 (Homo sapiens, UniProt P22001)", "T1 construct": "endogenous in cells", "T1 sequence (P22001 whole entry)": "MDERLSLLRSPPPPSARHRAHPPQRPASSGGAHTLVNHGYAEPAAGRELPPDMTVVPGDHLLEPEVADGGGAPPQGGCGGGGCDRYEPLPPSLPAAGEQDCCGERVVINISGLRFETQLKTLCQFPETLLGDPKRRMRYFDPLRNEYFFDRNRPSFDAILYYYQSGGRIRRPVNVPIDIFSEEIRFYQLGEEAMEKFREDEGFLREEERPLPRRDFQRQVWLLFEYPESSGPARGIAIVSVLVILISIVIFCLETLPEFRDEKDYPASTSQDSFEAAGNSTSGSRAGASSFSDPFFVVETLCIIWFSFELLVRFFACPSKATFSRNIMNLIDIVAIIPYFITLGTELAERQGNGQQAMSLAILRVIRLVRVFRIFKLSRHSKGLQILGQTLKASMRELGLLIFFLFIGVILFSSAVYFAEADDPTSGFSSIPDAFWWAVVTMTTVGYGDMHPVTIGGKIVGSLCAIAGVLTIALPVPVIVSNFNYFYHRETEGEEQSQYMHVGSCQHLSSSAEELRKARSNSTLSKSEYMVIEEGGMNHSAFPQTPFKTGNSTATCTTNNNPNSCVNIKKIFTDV", "test": "Whole-cell patch-clamp of Kv1.3 currents in PHA-activated human T lymphocytes", "format": "cell-based", "experimental": "(§1) Macroscopic Kv1.1 and Kv1.2 currents were measured in transiently transfected CHO cells. For Kv1.3 current recording, human T lymphocytes were activated by Phytohemagglutinin A (PHA) to increase Kv1.3 channel expression, and micro-pipettes were filled with Ca^2+-free solution to prevent KCa3.1 channel activation. K^+ currents were evoked by applying 15-ms-long depolarization pulses to +50 mV from a holding potential of −120 mV except for Kv1.2, as it has highly variable activation kinetics; therefore, 15–500 ms-long pulses were applied to maximize the open probability of Kv1.2 channel. CboK peptide toxins were dissolved in a freshly prepared extracellular solution and applied to the whole-cell patch-clamped cells using a micro perfusion system at 200 μL/min flow rate.\nIsochronal RCF data points obtained this way (isochronal RCF = I4ms/I4ms,0 where I4ms,0 and I4ms are the currents at 4 ms time point in the absence and presence of CboK peptides, respectively) at different toxin concentrations were fitted with the Hill equation to obtain concentration–response curves as shown in Figure 6H.\nHuman peripheral venous blood was acquired from anonymous healthy volunteers from the blood bank. Blood samples were collected by having approval from the Ethical Committee of the Hungarian Medical Research Council (36255-6/2017/EKU). PBMCs were separated by Histopaque 1077 (Sigma-Aldrich, Budapest, Hungary) separation technique, and isolated cells, at the density of 5 × 10^5 cells, were cultured in RPMI 1640 media (Gibco, Grand Island, NY, USA) supplemented with 10% FBS (Sigma-Aldrich, Budapest, Hungary), 2 mM L-glutamine, […], and […] penicillin in a humidified incubator at 37 °C and 5% CO2 for 3–6 days. A measure of 2, 5, or 10 μg/mL of Phytohemagglutinin A (PHA) (Sigma-Aldrich, Budapest, Hungary) was added in cultured cells to activate the PBMCs and upregulate the Kv1.3 expression.\n(§2) The patch-clamp technique was used for measuring whole-cell currents in voltage-clamped mode using standard protocols. Electrophysiological recordings were acquired by using Multiclamp 700B amplifier connected to a personnel computer with an Axon Digidata1440 digitizer (Molecular Devices, Sunnyvale, CA, USA). Pipettes were pulled from GC150F-15 borosilicate capillaries (Harvard Apparatus, Kent, UK) having 3−5 MΩ tip resistance in the bath solution. All current recordings were carried out at room temperature (20−25 °C) and only those currents were recorded and subjected to analyses when the leak current at holding potential was <5% of peak current at the test potential. Current traces were lowpass-filtered by utilizing the built-in analog four-pole Bessel filters of the amplifiers and were sampled at 20 kHz which is at least twice the filter cut-off frequency. A gravity-driven perfusion system was used to perfuse the cells with control and test solutions and excess fluid was removed continuously through vacuum suction."}, "[4]": {"biological_target": "Kv1.3", "settings": "no reference given; read-out: Kd for Kv1.3 (positive control concentration equivalent to Kd); cited from earlier work"}, "[5]": {"biological_target": "Kv1.1", "set-up": "method as in 3 sources, ref 40 (CoTx1), 32 (CoTx2) ||| ref 33 = [33]; PMID 26921461; doi:10.1016/j.toxicon.2016.02.017; 33. Olamendi-Portugal T. Bartok A. Zamudio-Zuñiga F. Balajthy A. Becerril B. Panyi G. Possani L.D. Isolation, chemical and functional characterization of several new K+-channel blocking peptides from ||| ref 33 (II-x toxins), 40 (CoTx1)", "settings": "no reference given; read-out: Kd for Kv1.1 (positive control concentration equivalent to Kd); cited from earlier work"}, "[6]": {"biological_target": "T2, hKv1.1 (Homo sapiens, UniProt Q09470)", "T2 construct": "host or cells: CHO cells, transient transfection (Lipofectamine 2000)", "T2 sequence (Q09470 whole entry)": "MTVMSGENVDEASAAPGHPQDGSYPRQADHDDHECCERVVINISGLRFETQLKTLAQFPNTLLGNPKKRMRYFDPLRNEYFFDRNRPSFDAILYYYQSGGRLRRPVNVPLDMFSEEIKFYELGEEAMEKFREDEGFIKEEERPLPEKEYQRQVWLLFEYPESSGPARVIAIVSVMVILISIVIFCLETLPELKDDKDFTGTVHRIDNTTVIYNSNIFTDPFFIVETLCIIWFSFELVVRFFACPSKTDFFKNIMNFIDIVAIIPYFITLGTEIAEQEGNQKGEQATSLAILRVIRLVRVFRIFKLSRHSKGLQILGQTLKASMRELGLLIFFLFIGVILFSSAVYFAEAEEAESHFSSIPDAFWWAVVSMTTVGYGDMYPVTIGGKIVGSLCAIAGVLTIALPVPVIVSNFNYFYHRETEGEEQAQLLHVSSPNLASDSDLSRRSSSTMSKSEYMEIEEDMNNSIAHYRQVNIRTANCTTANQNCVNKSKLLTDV", "test": "Whole-cell patch-clamp of Kv1.1 currents in transiently transfected CHO cells", "format": "cell-based", "settings": "for effect on Kv1.1 currents: 100 nM toxin; for Kd: this study, screened at 100 nM, read-out: Kd Values Kv1.1 (symbol)", "experimental": "as §1\n(§3) CHO cells were transiently transfected by using Lipofectamine 2000 kit (Invitrogen, Carlsbad, CA, USA), as per the manufacturer’s protocol with vector pCMV6-AC-GFP (cat# RG211000 and RC222200; OriGene Technologies, Rockville, MD, USA) encoding hKv1.1 (hKCNA1 gene) or hKv1.2 (hKCNA2 gene) ion channels. Cells were grown under standard conditions in an incubator at 37 °C and 5% CO2 for 24 h. GFP-positive transfected cells were identified by utilizing a Nikon TMS fluorescence microscope (Nikon, Tokyo, Japan) using bandpass filters of 455–495 nm and 515–555 nm for excitation and emission, respectively.\nas §2, with “suction. The extracellular solution (bath solution) contained 145 mM NaCl, 5.5 mM glucose, 5 mM KCl, 2.5 mM CaCl2, 1 mM MgCl2, and 10 mM HEPES, having pH of 7.35 and an osmolarity between 302 and 308 mOsM/L. Toxins were dissolved in bath solution at different molar concentrations and supplemented with 0.1 mg/mL of bovine serum albumin BSA (Sigma-Aldrich, Budapest, Hungary). The intracellular solution (pipette filling) was comprised of 140 mM KF, 2 mM MgCl2, 1 mM CaCl2, 10 mM HEPES, and 11 mM EGTA, with a pH of 7.22 and an osmolarity of ~295 mOsM/L.” for “suction.”\n(§4) Generally, to evoke the Kv1.xcurrents, 15-ms-long depolarization pulses to +50 mV from a holding potential of −120 mV were applied, and the current traces were recorded after every 15 s. However, in the case of Kv1.2, due to its variable activation kinetics, the duration of the depolarization pulse was set between 15 and 500 ms to attain the saturated peak current."}, "[7]": {"biological_target": "T3, hKv1.2 (Homo sapiens, UniProt P16389)", "T3 construct": "GFP (C); host or cells: CHO cells, transient transfection (Lipofectamine 2000)", "T3 sequence (P16389 whole entry)": "as the sequence (P16389 whole entry) above", "test": "Whole-cell patch-clamp of Kv1.2 currents in transiently transfected CHO cells", "format": "cell-based", "settings": "for Kd / Hill coefficient H, Kv1.2 block: Hill fit of RCF vs toxin concentration, n ≥ 3; for Kd: cumulative application, pulses to +50 mV from -120 mV, read-out: Kd for Kv1.2", "experimental": "as §1, §3\nas §2, with “suction. The extracellular solution (bath solution) contained 145 mM NaCl, 5.5 mM glucose, 5 mM KCl, 2.5 mM CaCl2, 1 mM MgCl2, and 10 mM HEPES, having pH of 7.35 and an osmolarity between 302 and 308 mOsM/L. Toxins were dissolved in bath solution at different molar concentrations and supplemented with 0.1 mg/mL of bovine serum albumin BSA (Sigma-Aldrich, Budapest, Hungary). The intracellular solution (pipette filling) was comprised of 140 mM KF, 2 mM MgCl2, 1 mM CaCl2, 10 mM HEPES, and 11 mM EGTA, with a pH of 7.22 and an osmolarity of ~295 mOsM/L.” for “suction.”\nas §4"}}, "note": "Where two headings read alike, the source gives them in different places. Where a SMILES comes first, the peptide text is derived from it. Bridges are numbered along the chain shown (N, C = ends)."}
{"molecule": "Maurotoxin", "values": [{"measurement": "selectivity for Kv1.2 over Kv1.1, literature", "setting": "[1]; 46 (Maurotoxin), 40 (CoTx1)", "result": "~ 56 fold"}, {"measurement": "selectivity for Kv1.2 over Kv1.3, literature", "setting": "[1]; 46 (Maurotoxin), 40 (CoTx1)", "result": 225, "unit": "fold"}, {"measurement": "Kd", "setting": "[1]; ref 40 (CoTx1), 33 (II-x toxins), 45, 46 (Maurotoxin), read-out: Kd for Kv1.2, literature", "result": 0.0008, "unit": "µM"}]}
{"molecule": "CoTx1 (from UniProt O46028)", "values": [{"measurement": "Kd", "setting": "[2]", "result": 0.027, "unit": "µM"}]}
{"molecule": "CC[N+](CC)(CC)CC", "note": "[TEA, tetraethylammonium, reference compound]", "values": [{"measurement": "reduction in Kv1.3 current by positive control", "setting": "[3]; 10 mM TEA, equilibrium block", "result": "Approximately 50%"}, {"measurement": "Kd", "setting": "[4]", "result": 10000, "unit": "µM"}, {"measurement": "Kd", "setting": "[5]", "result": 300, "unit": "µM"}, {"measurement": "reduction in Kv1.1 current by positive control", "setting": "[6]; 0.3 mM TEA, equilibrium block", "result": "Approximately 50%"}]}
{"molecule": "CC[C@H](C)[C@H](N)C(=O)N[C@@H](Cc1ccccc1)C(=O)N[C@H](C(=O)N[C@@H](CC(N)=O)C(=O)N[C@H](C(=O)N[C@@H](CCCCN)C(=O)N[C@H]1CSSC[C@@H]2NC(=O)[C@H](CCCCN)NC(=O)CNC(=O)CNC(=O)[C@H](C)NC(=O)[C@H](Cc3c[nH]cn3)NC(=O)[C@H](CCC(N)=O)NC(=O)CNC(=O)[C@H](Cc3ccccc3)NC(=O)[C@H](CCCNC(=N)N)NC(=O)[C@H](CC(=O)O)NC(=O)[C@H](CCCCN)NC(=O)[C@@H]3CSSC[C@@H](C(=O)N[C@@H](Cc4ccc(O)cc4)C(=O)N4CCC[C@H]4C(=O)O)NC(=O)[C@H](CCCCN)NC(=O)[C@H](CSSC[C@H](NC(=O)[C@H](CCC(N)=O)NC(=O)[C@H](CCC(N)=O)NC(=O)[C@@H]4CCCN4C(=O)[C@H](CC(C)C)NC(=O)[C@H](CO)NC1=O)C(=O)N[C@@H](CC(C)C)C(=O)N[C@@H](CCCNC(=N)N)C(=O)N1CCC[C@H]1C(=O)N3)NC(=O)[C@H](CCCCN)NC(=O)CNC(=O)[C@H](CC(N)=O)NC(=O)[C@H]([C@@H](C)CC)NC2=O)C(C)C)[C@@H](C)CC", "note": "[CboK5] (H-IFINVKCSLPQQCLRPCKDRFGQHAGGKCINGKCKCYP-OH; disulfide 7-29, 13-34, 17-36 (inferred); N-terminus and C-terminus assumed)", "values": [{"measurement": "Kd", "setting": "[3]; approximate, concentration-response data not obtained for CboK5, read-out: Kd for Kv1.3 (CboK5)", "result": 0.126, "unit": "µM"}, {"measurement": "inhibition of Kv1.2 current, representative traces", "setting": "[7]; 1 nM toxin, steady-state block, representative cell (Figure 4B, 5A)", "result": "~ 75%"}, {"measurement": "reversibility of Kv1.2 block", "setting": "[7]; 1 nM toxin, wash with toxin-free control solution", "result": "completely reversed"}, {"measurement": "Kd", "setting": "[7]; equilibrium block", "result": 0.000376, "unit": "µM"}, {"measurement": "Hill coefficient H, Kv1.2 block", "setting": "[7]", "result": 1.2}, {"measurement": "effect on Kv1.1 currents", "setting": "[6]", "result": "did not inhibit"}, {"measurement": "Kd", "setting": "[6]", "result": "> 0.1", "unit": "µM"}]}
{"molecule": "Charybdotoxin [ChTx, reference compound]", "values": [{"measurement": "Kd", "setting": "[1]; no reference given, read-out: Kd for Kv1.2 (positive control concentration equivalent to Kd)", "result": 0.014, "unit": "µM"}, {"measurement": "reduction in Kv1.2 current by positive control", "setting": "[7]; 14 nM ChTx, equilibrium block", "result": "Approximately 50%"}]}
{"molecule": "CC[C@H](C)[C@@H]1NC(=O)[C@@H]2CSSC[C@H](NC(=O)[C@H](CCCCN)NC(=O)[C@@H](NC(=O)[C@H](CC(N)=O)NC(=O)[C@@H](NC(=O)[C@@H](NC(=O)[C@@H](N)[C@@H](C)O)[C@@H](C)O)[C@@H](C)CC)C(C)C)C(=O)N[C@@H](CO)C(=O)N[C@@H](CC(C)C)C(=O)N3CCC[C@H]3C(=O)N[C@@H](CCC(N)=O)C(=O)N[C@@H](CCC(N)=O)C(=O)N[C@H]3CSSC[C@H](NC(=O)[C@H](CCCCN)NC(=O)CNC(=O)[C@H](CC(N)=O)NC1=O)C(=O)N[C@@H](CCCCN)C(=O)N[C@H](C(=O)N[C@@H](Cc1ccc(O)cc1)C(=O)N1CCC[C@H]1C(=O)O)CSSC[C@H](NC(=O)[C@@H]1CCCN1C(=O)[C@H](CCCNC(=N)N)NC(=O)[C@H](CC(C)C)NC3=O)C(=O)N[C@@H](CCCCN)C(=O)N[C@@H](CC(=O)O)C(=O)N[C@@H](CCCNC(=N)N)C(=O)N[C@@H](Cc1ccccc1)C(=O)NCC(=O)N[C@@H](CCC(N)=O)C(=O)N[C@@H](Cc1c[nH]cn1)C(=O)N[C@@H](C)C(=O)NCC(=O)NCC(=O)N[C@@H](CCCCN)C(=O)N2", "note": "[CboK6] (H-TTINVKCSLPQQCLRPCKDRFGQHAGGKCINGKCKCYP-OH; disulfide 7-29, 13-34, 17-36 (inferred); N-terminus and C-terminus assumed)", "values": [{"measurement": "Hill coefficient H, Kv1.3 block", "setting": "[3]; Hill fit of isochronal RCF (4 ms), n ≥ 3", "result": 0.77}, {"measurement": "Kd", "setting": "[3]; Hill fit of isochronal RCF (current at 4 ms), 15-ms pulses to +50 mV from -120 mV, n ≥ 3, read-out: Kd for Kv1.3", "result": 0.16, "unit": "µM"}, {"measurement": "Kd", "setting": "[7]; equilibrium block", "result": 0.000585, "unit": "µM"}, {"measurement": "Hill coefficient H, Kv1.2 block", "setting": "[7]", "result": 1.3}, {"measurement": "effect on Kv1.1 currents", "setting": "[6]", "result": "does not block"}, {"measurement": "Kd", "setting": "[6]", "result": "> 0.1", "unit": "µM"}]}
